Reference: ChEMBL document CHEMBL1201862, “PubChem BioAssay data set” (2004)
Several values for one entry are separate records, joined by “and”; a condition that tells them apart may be missing. Identical values can stand only once.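 96-well plates; 48 h exposure; 5 concentrations. Endpoints by linear interpolation between flanking doses. Not reached: highest tested concentration assigned. Here, GI50 denotes the concentration required for 50% inhibition of growth.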 Activity calls are given as the source filed them. No stated cut-off is given here; in the data, active = GI50 up to about 1.1 µM and inactive = higher.

Columns and labels:
Experiment in all cases: inhibition of tumour cell growth, NCI panel, 48 h
[1] = tested on: OVCAR-3
[2] = tested on: SW-620
[3] = tested on: MDA-MB-231
[4] = tested on: PC-3
[5] = tested on: UACC-62
[6] = tested on: SF-268
[7] = tested on: SF-539
[8] = tested on: LOX IMVI
[9] = tested on: A549
[10] = tested on: NCI/ADR-RES
[11] = tested on: SF-295
[12] = tested on: SR
[13] = tested on: SK-MEL-5
[14] = tested on: MCF7
[15] = tested on: ACHN
[16] = tested on: SN12C
[17] = tested on: SNB-19
[18] = tested on: OVCAR-4
[19] = tested on: RXF 393
[20] = tested on: HCC 2998

Row | SMILES | GI50 [1] | GI50 [2] | GI50 [3] | GI50 [4] | GI50 [5] | GI50 [6] | GI50 [7] | GI50 [8] | GI50 [9] | GI50 [10] | GI50 [11] | GI50 [12] | GI50 [13] | GI50 [14] | GI50 [15] | GI50 [16] | GI50 [17] | GI50 [18] | GI50 [19] | GI50 [20]
1 | CCCC1C2=C(C(=O)OC2=O)C2C(CC)CC3=C(C(=O)OC3=O)C12 (configuration not stated) | > 100 µM (inactive) | > 100 µM (inactive) | > 100 µM (inactive) | > 100 µM (inactive) | > 100 µM (inactive) | > 100 µM (inactive) | > 100 µM (inactive) | > 100 µM (inactive) | > 100 µM (inactive) | > 100 µM (inactive) | > 100 µM (inactive) | > 100 µM (inactive) | > 100 µM (inactive) | > 100 µM (inactive) | > 100 µM (inactive) | > 100 µM (inactive) | > 100 µM (inactive) |  |  | 
2 | CC1(C)OC2OC(C(COS(=O)(=O)C(F)(F)F)N=[N+]=[N-])C(OC(=O)c3ccccc3)C2O1 (configuration not stated) | > 100 µM (inactive) | > 100 µM (inactive) | > 100 µM (inactive) | > 100 µM (inactive) | > 100 µM (inactive) | > 100 µM (inactive) | > 100 µM (inactive) | > 100 µM (inactive) | > 100 µM (inactive) | > 100 µM (inactive) | > 100 µM (inactive) |  | > 100 µM (inactive) | > 100 µM (inactive) | > 100 µM (inactive) | > 100 µM (inactive) | > 100 µM (inactive) | > 100 µM (inactive) | > 100 µM (inactive) and 59.3 µM (inactive) | > 100 µM (inactive)
3 | COc1cc(C(=O)N(C(=S)OC23CC4CC(CC(C4)C2)C3)c2ccccc2)cc(OC)c1OC | 28.1 µM (inactive) | 22.7 µM (inactive) | 33.4 µM (inactive) | 22.6 µM (inactive) | 22 µM (inactive) | 35.6 µM (inactive) | 31.3 µM (inactive) |  | 26.1 µM (inactive) | 22.8 µM (inactive) | 22.1 µM (inactive) |  | 16.1 µM (inactive) | 29.4 µM (inactive) | 29.6 µM (inactive) | 28.6 µM (inactive) | 34.6 µM (inactive) | 29.2 µM (inactive) | 32.7 µM (inactive) | 23.4 µM (inactive)
4 | CCOP(=O)(/C=C/n1cnc2c(=O)n(C(C)=O)c(N)nc21)OCC | > 100 µM (inactive) | > 100 µM (inactive) | > 100 µM (inactive) | > 100 µM (inactive) | > 100 µM (inactive) | > 100 µM (inactive) | > 100 µM (inactive) | > 100 µM (inactive) | > 100 µM (inactive) | > 100 µM (inactive) | > 100 µM (inactive) |  | > 100 µM (inactive) | > 100 µM (inactive) | > 100 µM (inactive) | > 100 µM (inactive) | > 100 µM (inactive) | > 100 µM (inactive) | > 100 µM (inactive) | 
5 | Nc1nc(Cl)cc(NCC2(CO)CCC(Cc3ccccc3)C2)n1 (configuration not stated) | 43.1 µM (inactive) | 15 µM (inactive) | 33 µM (inactive) | 26.7 µM (inactive) | 11.9 µM (inactive) | 30.1 µM (inactive) | 29 µM (inactive) | 8.59 µM (inactive) | 16.3 µM (inactive) | 20.3 µM (inactive) | 10.1 µM (inactive) |  | 0.671 µM (active) | 11.2 µM (inactive) | 20 µM (inactive) | 52.7 µM (inactive) | 33.5 µM (inactive) | 13.6 µM (inactive) | 28.5 µM (inactive) | 25.8 µM (inactive)
6 | NCCCN(CCCCN(CCCN)Cc1ccc2ccccc2c1)Cc1ccc2ccccc2c1 |  | 2.43 µM (inactive) | 3.18 µM (inactive) |  | 2.08 µM (inactive) | 1.29 µM (inactive) | 1.8 µM (inactive) | 2.1 µM (inactive) | 1.68 µM (inactive) | 18.7 µM (inactive) | 2.12 µM (inactive) |  | 1.92 µM (inactive) | 2.09 µM (inactive) | 1.9 µM (inactive) | 1.57 µM (inactive) | 1.53 µM (inactive) | 1.99 µM (inactive) | 1.95 µM (inactive) | 2.86 µM (inactive)
7 | CCOc1ccc(NC(=S)N/C=C(/C(C)=O)C(=O)Nc2ccccc2C)cc1 | > 100 µM (inactive) | > 100 µM (inactive) | > 100 µM (inactive) | > 100 µM (inactive) | > 100 µM (inactive) | > 100 µM (inactive) | > 100 µM (inactive) | > 100 µM (inactive) | > 100 µM (inactive) | > 100 µM (inactive) | > 100 µM (inactive) |  | > 100 µM (inactive) | > 100 µM (inactive) | > 100 µM (inactive) | > 100 µM (inactive) | > 100 µM (inactive) | 59.8 µM (inactive) | > 100 µM (inactive) | > 100 µM (inactive)
8 | CC[C@@H]1CC[C@@H]2[C@H](CC[C@]3(C)[C@@H](O)CC[C@@H]23)[C@H]1CO | > 100 µM (inactive) | > 100 µM (inactive) | > 100 µM (inactive) | 76.4 µM (inactive) | 79.8 µM (inactive) | > 100 µM (inactive) | > 100 µM (inactive) | > 100 µM (inactive) | > 100 µM (inactive) | 91.4 µM (inactive) | 77.3 µM (inactive) |  | 31.3 µM (inactive) | > 100 µM (inactive) | > 100 µM (inactive) | > 100 µM (inactive) | > 100 µM (inactive) | 71 µM (inactive) | > 100 µM (inactive) | > 100 µM (inactive)
9 | Cc1ccc(C(C2C(=O)N(C)C(=O)N(C)C2=O)C(F)(F)C(=O)N(C)C)cc1 (configuration not stated) | > 100 µM (inactive) | > 100 µM (inactive) | > 100 µM (inactive) | > 100 µM (inactive) | > 100 µM (inactive) | > 100 µM (inactive) | 45.3 µM (inactive) | > 100 µM (inactive) | > 100 µM (inactive) | > 100 µM (inactive) | > 100 µM (inactive) |  | > 100 µM (inactive) | > 100 µM (inactive) | > 100 µM (inactive) |  | > 100 µM (inactive) | > 100 µM (inactive) | > 100 µM (inactive) | > 100 µM (inactive)
10 | CCNC(=O)c1cc(Cl)ccc1NC(=O)C12CC3CC(CC(C3)C1)C2 | 36.1 µM (inactive) | 47.2 µM (inactive) | 71.8 µM (inactive) | 32.1 µM (inactive) |  | > 100 µM (inactive) | > 100 µM (inactive) | 42 µM (inactive) | 37.2 µM (inactive) | 47.8 µM (inactive) | 52.1 µM (inactive) |  | 30.1 µM (inactive) | 39.1 µM (inactive) | 44.1 µM (inactive) | 32.7 µM (inactive) | 43.6 µM (inactive) | 36.1 µM (inactive) | 19.2 µM (inactive) | 
11 | COc1ccc(S(=O)(=O)c2nnc(S(=O)(=O)Cc3ccccc3)s2)cc1 | 32.2 µM (inactive) | 15 µM (inactive) | 17.5 µM (inactive) | 21.1 µM (inactive) |  | 33.7 µM (inactive) | 12 µM (inactive) |  | 20.8 µM (inactive) | 43.7 µM (inactive) | 33.3 µM (inactive) |  | 19.5 µM (inactive) | 19.2 µM (inactive) | 12.7 µM (inactive) | 23.7 µM (inactive) | 20.8 µM (inactive) | 44.5 µM (inactive) | 16.2 µM (inactive) | 
